Assay results from patent US20170239253A1, “COMPOSITIONS AND METHODS FOR THE REDUCTION OR PREVENTION OF NON-ALCOHOLIC STEATOHEPATITIS (NASH)” (NuSirt Sciences, Inc., priority 2015, published 2017).

What was measured:
[1] = tested on: C57Bl/6 mice on high fat diet (HFD); assay: Prophylactic treatment concurrent with high fat diet: liver mass and hepatic lipid accumulation; assay type: in vivo; settings: six weeks, metformin alone 1.5 g/kg
Protocol: In this study, the prophylactic effects of metformin alone, and various combinations of metformin, leucine, and resveratrol on liver mass and hepatic steatosis are assessed. C57Bl/6 mice are assigned to the following experimental groups as depicted in Table 25: Drug treatments and high fat diet feeding (as described in Example 1) are initiated on the same day and are carried out for six weeks. The effects of the treatments and diet on liver mass and hepatic lipid accumulation are assessed as described in the preceding examples. […] In this study, the prophylactic effects of metformin alone, and various combinations of metformin, HMB, and resveratrol on liver mass and hepatic steatosis are assessed. C57Bl/6 mice are assigned to the following experimental groups as depicted in Table 26: Drug treatments and high fat diet feeding (as described in Example 1) are initiated on the same day and are carried out for six weeks. The effects of the treatments and diet on liver mass and hepatic lipid accumulation are assessed as described in the preceding examples. […] In this study, the prophylactic effects of sub-therapeutic leucine alone, and co-administration of leucine and the PDE5-specific inhibitor icariin on liver mass and hepatic steatosis are assessed. […] The effects of the treatments and diet on liver mass and hepatic lipid accumulation are assessed as described in the preceding examples.

[2] = tested on: C57Bl/6 mice on high fat diet (HFD); assay: Histological analysis of hepatic lipid accumulation (hepatic steatosis), high fat diet model
Text: (§1) Chronic high fat diet was used in C57Bl/6 mice as an experimental model of hepatic steatosis. Male C57/BL6 mice were either maintained on standard low-fat diet (control; LFD; 10% energy from fat) or placed on a high fat (HFD; 60% energy from fat, Research Diets #D12492, Research Diets, Inc., New Brunswick, N.J.) at six weeks of age to induce obesity and fatty infiltration of the liver. […] Animals fed with LFD have normal cellular structure in liver cells. […] Animals were then randomized to treatments for an additional six weeks, with 10 animals per group, as specified in the following examples.
(§2) The 1.5 g/kg diet of metformin corresponds to a therapeutically effective dose of metformin in humans.
(§3) Following induction of hepatic steatosis as described in Example 1, animals were treated for six weeks according to the following treatment groups as depicted in Table 22:
(§4) In this study, the effects of metformin alone (therapeutic dose) vs. combination therapy with sub-therapeutic amounts of metformin and HMB on liver weight and hepatic lipid accumulation were assessed. Following induction of hepatic steatosis as described in Example 1, animals were treated for six weeks according to the following treatment groups as depicted in Table 23:

[3] = tested on: C57Bl/6 mice on high fat diet (HFD); assay: Liver weight after six weeks treatment in chronic high fat diet model of hepatic steatosis; assay type: in vivo
Text: as §1, §2, §3, §4

[4] = tested on: C57Bl/6 mice on high fat diet (HFD); settings: Example 3; metformin alone 1.5 g/kg diet; leucine 24 g/kg + metformin 0.5 g/kg
Text: Chronic high fat diet was used in C57Bl/6 mice as an experimental model of hepatic steatosis. Male C57/BL6 mice were either maintained on standard low-fat diet (control; LFD; 10% energy from fat) or placed on a high fat (HFD; 60% energy from fat, Research Diets #D12492, Research Diets, Inc., New Brunswick, N.J.) at six weeks of age to induce obesity and fatty infiltration of the liver. […] Animals were then randomized to treatments for an additional six weeks, with 10 animals per group, as specified in the following examples.
In this study, the effects of metformin alone (therapeutic dose) vs. combination therapy with sub-therapeutic amounts of metformin and leucine on liver weight and hepatic lipid accumulation were assessed.

[5] = 25 mg icariin/kg diet; corresponding to 4 mg/kg body weight/day; cited from earlier work

metformin
HFD-induced increase in liver mass and hepatic lipid accumulation (prophylactic) ([1]; Example 6, treatment and HFD started same day, leucine 24 g/kg + metformin 0.15-0.50 g/kg ± resveratrol 12.5 mg/kg diet): attenuates the HFD-induced increase in liver mass and hepatic lipid accumulation
HFD-induced increase in liver mass and hepatic lipid accumulation (prophylactic) ([1]; Example 7, CaHMB 2 g/kg + metformin 0.15-0.50 g/kg ± resveratrol 12.5 mg/kg diet): attenuates the HFD-induced increase in liver mass and hepatic lipid accumulation
hepatic steatosis (histology) ([2]; Example 2, HFD mice, six weeks, metformin alone at therapeutic dosage, combinations at sub-therapeutic dosages): partial reversal of the effects of HFD on hepatic steatosis
hepatic steatosis (histology) ([2]; Example 3, metformin alone therapeutic, leucine + metformin 0.5 g/kg): partially reversed hepatic steatosis
effect on liver weight ([3]; Example 2, metformin alone 1.5 g/kg diet, leucine 24 g/kg diet, resveratrol 12.5 mg/kg diet): partially reverse the effect of high fat diet on liver weight
effect on liver weight ([3]; Example 3, metformin alone 1.5 g/kg diet, leucine 24 g/kg + metformin 0.25 and 0.5 g/kg, p<0.02 vs. HFD): reversed the effect of high fat diet on liver weight back to control levels
effect on liver weight ([3]; Example 4, metformin alone 1.5 g/kg diet, CaHMB 2 g/kg diet + metformin 0.25 and 0.5 g/kg, p<0.03): reversed the effect of high fat diet on liver weight back to control levels
effect on liver triglycerides [4]: partially reversed the effect of high fat diet on liver triglycerides

COc1ccc(-c2oc3c(CC=C(C)C)c(O[C@@H]4O[C@H](CO)[C@@H](O)[C@H](O)[C@H]4O)cc(O)c3c(=O)c2O[C@@H]2O[C@@H](C)[C@H](O)[C@@H](O)[C@H]2O)cc1 [icariin]
effect on liver mass or hepatic lipid accumulation [5]: no effect
